Article PMC8550792, “Evolution of kinase polypharmacology across HSP90 drug discovery” (Cell Chemical Biology, 2021)

How the values were obtained:
Test in all cases: biochemical
Assay type in all cases: biochemical
382 unique human kinases [1] = target: T1, 382 unique human kinases (Homo sapiens, UniProt Q8TDC3); details: kinase BRSK1, compound 10 uM; for remaining activity at 10 µM: read-out: % Enzyme Activity (relative to DMSO controls)
T1 construct: purchased Reaction Biology (HotSpot contract assay)
T1 sequence (Q8TDC3 1-778): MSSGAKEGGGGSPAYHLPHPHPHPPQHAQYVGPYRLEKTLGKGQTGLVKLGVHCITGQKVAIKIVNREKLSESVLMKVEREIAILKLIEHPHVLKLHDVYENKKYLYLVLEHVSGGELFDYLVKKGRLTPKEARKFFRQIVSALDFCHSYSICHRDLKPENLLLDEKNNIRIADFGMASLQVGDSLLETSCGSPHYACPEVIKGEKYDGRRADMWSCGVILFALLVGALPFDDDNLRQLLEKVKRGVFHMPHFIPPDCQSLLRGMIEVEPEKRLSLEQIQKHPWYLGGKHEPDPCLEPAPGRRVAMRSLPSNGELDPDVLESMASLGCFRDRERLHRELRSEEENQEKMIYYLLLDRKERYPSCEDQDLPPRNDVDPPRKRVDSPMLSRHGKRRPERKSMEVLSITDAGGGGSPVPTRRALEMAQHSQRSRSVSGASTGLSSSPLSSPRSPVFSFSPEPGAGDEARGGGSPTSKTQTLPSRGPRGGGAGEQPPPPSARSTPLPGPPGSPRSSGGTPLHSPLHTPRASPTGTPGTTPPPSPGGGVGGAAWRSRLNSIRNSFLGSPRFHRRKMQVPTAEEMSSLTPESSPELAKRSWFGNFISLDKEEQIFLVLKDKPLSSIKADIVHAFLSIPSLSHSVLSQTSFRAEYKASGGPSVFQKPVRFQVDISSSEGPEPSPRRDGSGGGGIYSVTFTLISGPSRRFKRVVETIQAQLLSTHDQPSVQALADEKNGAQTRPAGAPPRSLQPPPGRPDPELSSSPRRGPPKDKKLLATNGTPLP

382 unique human kinases [2] = target: T2, 382 unique human kinases (Homo sapiens, UniProt Q92918); details: kinase HPK1/MAP4K1, compound 10 uM; for remaining activity at 10 µM: read-out: % Enzyme Activity (relative to DMSO controls)
T2 construct: purchased Reaction Biology (HotSpot contract assay)

382 unique human kinases [3] = target: T3, 382 unique human kinases (Homo sapiens, UniProt P51817); details: PRKX, compound at 10 uM, duplicate values; for remaining activity at 10 µM: read-out: % Enzyme Activity (relative to DMSO controls)
T3 construct: purchased Reaction Biology (HotSpot contract assay)
T3 sequence (P51817 1-358): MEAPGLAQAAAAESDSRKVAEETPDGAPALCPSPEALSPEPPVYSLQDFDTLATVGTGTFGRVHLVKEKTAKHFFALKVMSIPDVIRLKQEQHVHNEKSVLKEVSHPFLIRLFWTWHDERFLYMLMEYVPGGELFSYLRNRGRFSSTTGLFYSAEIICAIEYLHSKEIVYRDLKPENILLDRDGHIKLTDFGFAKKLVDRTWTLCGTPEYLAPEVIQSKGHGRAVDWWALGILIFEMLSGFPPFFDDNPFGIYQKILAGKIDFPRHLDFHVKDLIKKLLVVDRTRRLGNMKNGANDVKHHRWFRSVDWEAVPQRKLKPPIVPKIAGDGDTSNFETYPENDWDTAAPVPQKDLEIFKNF

382 unique human kinases [4] = target: T4, 382 unique human kinases (Homo sapiens, UniProt P10721, Y823D); details: c-Kit (Y823D), [ATP] 100 µM, compound 10 uM; for remaining activity at 10 µM: read-out: % Enzyme Activity (relative to DMSO controls)
T4 construct: purchased Reaction Biology (HotSpot contract assay)

382 unique human kinases [5] = target: T5, 382 unique human kinases (Homo sapiens, UniProt O75914); details: PAK3, 10 uM; for remaining activity at 10 µM: read-out: % Enzyme Activity (relative to DMSO controls)
T5 construct: purchased Reaction Biology (HotSpot contract assay)

382 unique human kinases [6] = target: T6, 382 unique human kinases (Homo sapiens, UniProt P00519, Y253F); details: ABL1 (Y253F), [ATP] 15 µM, compound 10 uM; for remaining activity at 10 µM: read-out: % Enzyme Activity (relative to DMSO controls)
T6 construct: purchased Reaction Biology (HotSpot contract assay)

382 unique human kinases [7] = target: T7, 382 unique human kinases (Homo sapiens, UniProt O15146); details: MUSK, [ATP] 15 µM, compound 10 uM; for remaining activity at 10 µM: read-out: % Enzyme Activity (relative to DMSO controls)
T7 construct: purchased Reaction Biology (HotSpot contract assay)
T7 sequence (O15146 24-869): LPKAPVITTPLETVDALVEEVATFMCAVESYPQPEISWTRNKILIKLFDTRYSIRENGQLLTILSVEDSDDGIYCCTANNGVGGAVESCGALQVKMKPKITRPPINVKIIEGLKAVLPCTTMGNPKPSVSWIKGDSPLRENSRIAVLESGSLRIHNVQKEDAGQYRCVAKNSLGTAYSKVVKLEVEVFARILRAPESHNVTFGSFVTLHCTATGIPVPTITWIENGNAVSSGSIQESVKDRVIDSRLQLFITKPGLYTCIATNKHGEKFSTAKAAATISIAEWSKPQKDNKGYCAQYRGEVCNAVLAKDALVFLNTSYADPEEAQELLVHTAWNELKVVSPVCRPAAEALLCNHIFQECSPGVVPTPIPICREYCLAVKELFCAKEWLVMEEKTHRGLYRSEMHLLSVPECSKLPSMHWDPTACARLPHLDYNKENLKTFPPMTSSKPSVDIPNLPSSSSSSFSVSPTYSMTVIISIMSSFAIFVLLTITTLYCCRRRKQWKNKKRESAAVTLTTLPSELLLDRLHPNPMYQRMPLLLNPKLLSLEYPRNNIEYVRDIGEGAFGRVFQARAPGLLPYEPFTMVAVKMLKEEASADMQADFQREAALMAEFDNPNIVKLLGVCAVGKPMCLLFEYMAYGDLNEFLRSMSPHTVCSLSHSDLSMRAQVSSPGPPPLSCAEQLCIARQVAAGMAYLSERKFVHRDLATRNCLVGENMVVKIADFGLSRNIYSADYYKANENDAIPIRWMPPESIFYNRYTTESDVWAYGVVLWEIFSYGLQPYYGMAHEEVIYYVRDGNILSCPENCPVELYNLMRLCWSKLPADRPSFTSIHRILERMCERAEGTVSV

382 unique human kinases [8] = target: T8, 382 unique human kinases (Homo sapiens, UniProt P00519, M351T); details: ABL1 (M351T), [ATP] 10 µM, compound 10 uM; for remaining activity at 10 µM: read-out: % Enzyme Activity (relative to DMSO controls)
T8 construct: purchased Reaction Biology (HotSpot contract assay)

T4 sequence (P10721 26-976 Y823D): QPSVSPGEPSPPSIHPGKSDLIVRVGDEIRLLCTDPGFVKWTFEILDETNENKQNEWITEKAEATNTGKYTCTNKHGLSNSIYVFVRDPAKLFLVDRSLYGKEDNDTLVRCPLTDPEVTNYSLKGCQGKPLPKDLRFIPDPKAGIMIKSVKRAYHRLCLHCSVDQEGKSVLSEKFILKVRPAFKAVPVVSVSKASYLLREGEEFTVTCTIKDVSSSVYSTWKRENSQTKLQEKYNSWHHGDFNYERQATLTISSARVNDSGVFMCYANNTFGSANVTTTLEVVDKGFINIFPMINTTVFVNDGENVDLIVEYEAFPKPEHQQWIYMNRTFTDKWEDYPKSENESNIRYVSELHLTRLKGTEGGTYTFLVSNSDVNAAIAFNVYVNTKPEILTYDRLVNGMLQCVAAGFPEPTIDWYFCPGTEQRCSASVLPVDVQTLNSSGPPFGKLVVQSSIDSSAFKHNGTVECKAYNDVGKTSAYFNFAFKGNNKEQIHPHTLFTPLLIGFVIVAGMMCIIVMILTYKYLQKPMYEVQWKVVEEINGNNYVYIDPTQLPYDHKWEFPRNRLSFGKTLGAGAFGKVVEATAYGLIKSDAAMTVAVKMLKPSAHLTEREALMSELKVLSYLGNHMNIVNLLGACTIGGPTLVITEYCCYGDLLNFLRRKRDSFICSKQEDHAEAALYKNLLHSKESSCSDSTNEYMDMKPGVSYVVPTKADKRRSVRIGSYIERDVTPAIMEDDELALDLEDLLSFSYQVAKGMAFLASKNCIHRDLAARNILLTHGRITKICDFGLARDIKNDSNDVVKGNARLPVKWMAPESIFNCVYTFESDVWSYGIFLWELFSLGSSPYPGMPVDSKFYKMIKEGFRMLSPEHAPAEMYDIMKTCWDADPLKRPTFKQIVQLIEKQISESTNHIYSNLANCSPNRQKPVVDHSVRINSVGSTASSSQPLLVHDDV
T2 sequence (Q92918 whole entry): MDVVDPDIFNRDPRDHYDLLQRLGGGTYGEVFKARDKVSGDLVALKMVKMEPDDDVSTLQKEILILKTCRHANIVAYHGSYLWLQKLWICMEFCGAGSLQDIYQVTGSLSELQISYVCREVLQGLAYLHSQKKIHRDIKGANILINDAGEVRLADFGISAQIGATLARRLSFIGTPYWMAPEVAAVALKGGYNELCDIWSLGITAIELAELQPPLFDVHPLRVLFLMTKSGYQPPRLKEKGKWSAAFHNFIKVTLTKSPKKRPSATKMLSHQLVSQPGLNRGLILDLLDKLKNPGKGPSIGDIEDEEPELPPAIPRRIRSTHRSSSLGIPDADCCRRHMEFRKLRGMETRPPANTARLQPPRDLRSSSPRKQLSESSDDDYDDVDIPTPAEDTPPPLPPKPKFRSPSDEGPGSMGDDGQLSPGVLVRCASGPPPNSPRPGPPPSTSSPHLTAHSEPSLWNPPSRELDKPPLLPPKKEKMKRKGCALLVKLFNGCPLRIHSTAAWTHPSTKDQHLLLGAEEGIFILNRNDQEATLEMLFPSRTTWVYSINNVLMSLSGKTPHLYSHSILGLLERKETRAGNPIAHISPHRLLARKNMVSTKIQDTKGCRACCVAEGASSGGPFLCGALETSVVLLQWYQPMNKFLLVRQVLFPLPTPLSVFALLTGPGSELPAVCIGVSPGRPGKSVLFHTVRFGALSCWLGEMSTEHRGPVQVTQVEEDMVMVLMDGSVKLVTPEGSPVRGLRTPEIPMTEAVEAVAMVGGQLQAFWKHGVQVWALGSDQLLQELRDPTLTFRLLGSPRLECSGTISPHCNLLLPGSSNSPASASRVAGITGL
T5 sequence (O75914 whole entry): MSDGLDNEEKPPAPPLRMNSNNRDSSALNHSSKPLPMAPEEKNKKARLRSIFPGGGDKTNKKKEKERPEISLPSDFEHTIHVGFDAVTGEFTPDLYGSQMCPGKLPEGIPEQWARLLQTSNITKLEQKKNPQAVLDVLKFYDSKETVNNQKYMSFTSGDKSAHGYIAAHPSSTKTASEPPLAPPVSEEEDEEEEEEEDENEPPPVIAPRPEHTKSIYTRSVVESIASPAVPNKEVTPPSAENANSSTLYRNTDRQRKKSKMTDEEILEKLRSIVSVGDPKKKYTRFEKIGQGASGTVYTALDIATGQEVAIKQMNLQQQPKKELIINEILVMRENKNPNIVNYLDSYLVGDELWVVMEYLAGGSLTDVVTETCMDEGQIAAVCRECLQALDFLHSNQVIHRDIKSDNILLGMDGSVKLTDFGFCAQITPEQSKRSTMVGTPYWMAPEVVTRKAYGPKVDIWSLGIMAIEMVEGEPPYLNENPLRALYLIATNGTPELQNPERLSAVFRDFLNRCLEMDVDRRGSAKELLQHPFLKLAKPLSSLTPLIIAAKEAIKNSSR

SMILES | remaining activity at 10 µM (382 unique human kinases [1]) | remaining activity at 10 µM (382 unique human kinases [2]) | remaining activity at 10 µM (382 unique human kinases [3]) | % Enzyme Activity (relative to DMSO controls) (382 unique human kinases [4]) | remaining activity at 10 µM (382 unique human kinases [4]) | % Enzyme Activity (relative to DMSO controls) (382 unique human kinases [5]) | remaining activity at 10 µM (382 unique human kinases [5]) | % Enzyme Activity (relative to DMSO controls) (382 unique human kinases [6]) | remaining activity at 10 µM (382 unique human kinases [6]) | % Enzyme Activity (relative to DMSO controls) (382 unique human kinases [7]) | remaining activity at 10 µM (382 unique human kinases [7]) | % Enzyme Activity (relative to DMSO controls) (382 unique human kinases [8]) | remaining activity at 10 µM (382 unique human kinases [8]) | % Enzyme Activity (relative to DMSO controls) (382 unique human kinases [1]) | % Enzyme Activity (relative to DMSO controls) (382 unique human kinases [2]) | % Enzyme Activity (relative to DMSO controls) (382 unique human kinases [3])
CC(C)c1cc(-c2n[nH]c(=O)n2-c2ccc3c(ccn3C)c2)c(O)cc1O [Ganetespib (STA9090)] | 81.4% | 97.5% | 108% |  |  |  |  |  |  |  |  |  |  |  |  | 
CCNC(=O)c1noc(-c2cc(C(C)C)c(O)cc2O)c1-c1ccc(CN2CCOCC2)cc1 [Luminespib] |  |  |  | 59.05% | 60.2% | 107.82% | 108% | 4.48% | 5.44% | 89.25% | 90.6% | 5.21% | 5.53% |  |  | 
CCNC(=O)c1noc(-c2cc(C(C)C)c(O)cc2O)c1-c1ccc(CN2CCOCC2)cc1 [Luminespib (AUY-922)] | 100% | 121% | 112% |  |  |  |  |  |  |  |  |  |  | 99.19% | 120.08% | 112.11%
CC(C)c1cc(-c2n[nH]c(=O)n2-c2ccc3c(ccn3C)c2)c(O)cc1O [Ganetespib] |  |  |  |  | 49.7% |  | 98.1% |  | 3.72% |  | 51.1% |  | 1.72% |  |  | 
